Common to all, as to type: cell-based
The test system of one assay is OVCAR3 cells. Put plainly: XTT cytotoxicity assay, OVCAR3 (OV). As to conditions: Homo sapiens, OVCAR-3. An outline of the steps: (§1)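 Cells cultured in DMEM with 10% FBS overnight at 37° C, then exposed in triplicate to compound in DMSO at 0.625–80 μg/ml for 72 hours. XTT reduction read as OD490-OD650 after 4 h with reagent. IC50 is the concentration giving 50% reduction versus vehicle controls, by linear regression.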
(Tetrazolium assays rely on reduction of a dye to a coloured formazan, in cell work by metabolically active cells.)

Assay [1] concerns Enterococcus faecalis (ATCC # 29212). In words: Broth microdilution antimicrobial assay, E. faecalis. As to conditions: for EF/MH (MIC): Mueller Hinton Broth; for EF/Tsoy (MIC): Trypticase Soy Broth. The protocol: Antimicrobial Properties A broth microdilution assay is used to assess the antimicrobial activity of the compounds. Compounds are tested at twofold serial dilutions, and the concentration that inhibits visible growth (OD600 at 10% of control) is defined as the MIC. Microorganisms tested include Staphylococcus aureus (ATCC # 29213), Enterococcus faecalis (ATCC # 29212), Pseudomonas aerpginosa (ATCC # 27853), and Escherichia coli (ATCC # 25922). The assay is performed in two growth media, Mueller Hinton Broth and Trypticase Soy Broth.
A blood (Tsoy/5% sheep blood) agar plate is inoculated from frozen stocks maintained in T soy broth containing 10% glycerol and incubated overnight at 37° C. Colonies are suspended in sterile broth so that the turbidity matches the turbidity of a 0.5 McFarland standard. The inoculum is diluted 1:10 in sterile broth (Mueller Hinton or Trypticase soy) and 195 μl is dispensed per well of a 96-well plate. The compounds to be tested, dissolved in DMSO, are added to the wells in 5 μl volume at the following concentrations: 25, 12.5, 6.25, 3.125, 1.56 and 0.78 μg/ml in duplicate. Additional concentrations are tested if required. 5 μl of DMSO added to duplicate wells are the vehicle control. Serial dilutions of positive control compounds, vancomycin (E. faecalis and S. aureus) and tobramycin (E. coli and P. aerpginosa), are included in each run.
After 24 hours of incubation at 37° C., plates are read at OD600 on a Molecular Devices SpectraMax Plus Spectrophotometer. Average OD600 values are computed using SOFTmax Pro Software (Molecular Devices) and MIC values are determined by linear regression analysis using Prism version 3.02 (Graph Pad Software, San Diego). The MIC is defined as the concentration of compound required to produce an OD600 reading equivalent to 10% of the vehicle control reading.

Assay [2] concerns MCF-7 human breast cancer cells (fatty acid oxidation pathway activity). In words: Fatty acid oxidation ([14C]palmitate to acid soluble products). As to conditions: for FAO SC 150: concentration leading to 150% of control acid soluble products, Neg = threshold not reached. In outline: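 MCF-7 cells preincubated 1 h with compound ([…], triplicate), then given 100 uM [14C]palmitate plus 200 uM carnitine in serum-free medium for 30 min; acid-soluble 14C products counted. SC150 = concentration giving a 150% increase over untreated controls, by linear regression; maximum also reported.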

Another assay concerns HCT116 cells. Put plainly: XTT cytotoxicity assay, HCT116 (H). As to conditions: Homo sapiens, HCT-116. An outline of the steps:
as §1

Each structure is given as a SMILES string. Converted amounts (≈) assume the structure as drawn.

By IC50 is commonly meant the midpoint of a concentration-inhibition curve. Read a low IC50 as inhibition by little substance. With `CCCCCCCCC1(C)SC(=O)C=C1OCC(=O)Nc1ccc(C(F)(F)F)cc1` (stereo not drawn), in the assay on OVCAR3 cells, the IC50 amounted to 4 µg/mL (≈ 9.02 µM). Besides, in assay [1], the “EF/MH (MIC)” value was “Neg” and the “EF/Tsoy (MIC)” value is on record as “Neg”. Also, the Emax at 6.25 µg/mL in assay [2] (Homo sapiens, MCF7, at 6.25 μg/ml, read-out: FAO Max) was determined as 130%. Also, in assay [2], the “FAO SC 150” value was “Neg”. The compound also displayed an IC50 in the assay with HCT116 cells of 4.8 µg/mL (≈ 10.8 µM).
`CCCCCCCCC1(C)SC(=O)C=C1OCC(=O)Nc1ccc(OC)cc1` (stereo not drawn) yielded an IC50 in the assay on OVCAR3 cells of 17.8 µg/mL (≈ 43.9 µM). Further, in assay [1], the “EF/MH (MIC)” value is “Neg” and the “EF/Tsoy (MIC)” value is “Neg”. The Emax at 0.098 µg/mL in assay [2] (Homo sapiens, MCF7, at 0.098 μg/ml, read-out: FAO Max) was 90%. Besides, in assay [2], the “FAO SC 150” value is listed as “Neg”. Inhibition in the assay on HCT116 cells was half-maximal at 15.6 µg/mL (≈ 38.5 µM) (IC50).

Values taken from US20110288052A1, “NOVEL COMPOUNDS, PHARMACEUTICAL COMPOSITIONS CONTAINING SAME, AND METHODS OF USE FOR SAME” (priority 2008, published 2011).
